Data taken from US20260014184A1, “ADENOSINE DERIVATIVES FOR USE IN THE TREATMENT OF NEURODEGENERATIVE DISORDERS AND CANCER” (UNIVERSITY COLLEGE CARDIFF CONSULTANTS LIMITED, priority 2022, published 2026).

Legend:
[1] = system: ubiquitin Ser65 phosphorylation; assay: Ubiquitin Ser65 phosphorylation in astrocytes with or without valinomycin; assay type: cell-based
Experimental: Briefly, astrocytes were treated with 50 μM of the nucleobase kinetin, nucleosides 9a and 9c or DMSO for 24 h and 5 h prior to lysis, the samples were treated with 50 nM valinomycin, a mitochondrial uncoupler.

[2] = system: immortalised MEF expressing PINK1 wild-type (WT); assay: MitoQC mitophagy assay, MEF expressing PINK1 wild-type; assay type: cell-based; conditions: 5 μM, 24 h
Description: With the inhibition of ubiquitin phosphorylation and parkin localisation to the mitochondria by kinetin riboside and the nucleoside analogue 9c, we next asked whether these compounds still induce mitophagy in a PINK1 dependent manner. To explore this, we employed the established MitoQC assay for measuring mitophagy in cells^11,12.

[3] = system: HeLa cells transfected with YFP-parkin; assay: Immunofluorescence for YFP-parkin localisation and TOM20 (mitochondrial fragmentation); assay type: cell-based; conditions: for parkin localisation to the mitochondria after pre-treatment followed by CCCP, compared to CCCP alone: 50 μM 24 h, then 10 μM CCCP; for impact on mitochondrial fragmentation (TOM20), compound alone / impact on parkin localisation, compound alone: 50 μM, 24 h, no niclosamide or CCCP
Experimental: (§1) Cells were seeded on PerkinElmer PhenoPlate 96-well plates, followed by treatment with compounds. Cells were fixed in chilled 4% PFA for 10 min followed by washes in PBS. […] Following PBS washes, cells were blocked using blocking buffer (PBS, 5% BSA, 0.1% Tween20) for 1 h at room temperature. Primary antibodies were diluted in blocking buffer and added to cells to be incubated overnight at 4° C. Cells were subsequently washed with PBS-T and the appropriate secondary antibodies (diluted in blocking buffer) were added for 2 h at room temperature in darkness. 10 μg/ml of Hoechst 33258 stain was added with secondary antibodies when required. Cells were again washed with PBS-T followed by addition of PBS with 0.02% sodium azide. Cells were then stored at 4° C. until ready for imaging. Primary antibodies used for immunofluorescence are as follows: Phospho-Ub Ser 65 (Sigma-Aldrich cat #ABS1513-1), TOM20 (Santa-Cruz cat #sc-17764). Secondary antibodies and stains used in immunofluorescence; Anti-IgG2a Alexa Fluor™ 546 (ThermoFisher cat #A21133) Anti-rabbit Alexa Fluor™ 647 (ThermoFisher cat #A21244), Hoechst 33258 stain (Sigma-Aldrich cat #B2883).
(§2) Confocal microscopy was performed using a Zeiss LSM800 w/Airyscan fluorescent microscope equipped with lasers emitting at 405 nm, 488 nm, 561 nm and 640 nm. All images were captured using a 40x oil immersion objective lens and processed using Zeiss ZEN software. Images were analysed and quantified using Columbus (PerkinElmer) and TIBCO Spotfire software.
(§3) First, HeLa cells transfected with YFP-parkin were either left untreated or treated with 50 μM kinetin riboside, nucleosides 9a and 9c for 24 h.

Ub Ser65 phosphorylation = assay: Immunofluorescence for Ub Ser65 phosphorylation in YFP-parkin transfected HeLa cells; assay type: cell-based; conditions: immunofluorescence; for impact on ubiquitin phosphorylation, compound alone: 50 μM, 24 h, no niclosamide or CCCP
Experimental: as §1, §2, §3

PINK1 [4] = biological target: T1, PINK1 (Homo sapiens, UniProt Q9BXM7); assay: PINK1 activation in cells judged by parkin Ser65 phosphorylation (parkin-transfected HeLa cells); assay type: cell-based; conditions: 50 μM, 1 h
T1 construct: HeLa cells, which express PINK1 endogenously; endogenous in cells; host or cells: HeLa cells transiently transfected with parkin
T1 sequence (Q9BXM7 78-581): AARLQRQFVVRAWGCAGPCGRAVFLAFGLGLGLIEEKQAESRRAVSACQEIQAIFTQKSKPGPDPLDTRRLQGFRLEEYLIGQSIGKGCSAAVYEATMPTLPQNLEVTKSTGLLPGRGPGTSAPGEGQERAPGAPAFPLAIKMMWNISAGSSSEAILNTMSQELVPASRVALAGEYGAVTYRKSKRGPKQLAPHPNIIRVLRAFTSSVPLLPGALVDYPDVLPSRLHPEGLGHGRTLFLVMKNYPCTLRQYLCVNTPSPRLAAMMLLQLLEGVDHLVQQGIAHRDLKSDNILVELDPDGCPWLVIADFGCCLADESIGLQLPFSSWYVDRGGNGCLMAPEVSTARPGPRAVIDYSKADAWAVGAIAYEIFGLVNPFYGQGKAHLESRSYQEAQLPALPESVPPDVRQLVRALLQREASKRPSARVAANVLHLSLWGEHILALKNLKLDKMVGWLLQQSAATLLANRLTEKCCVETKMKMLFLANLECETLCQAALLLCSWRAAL
Experimental: (§4) Both HeLa and parkin-overexpressed HeLa cells were maintained in DMEM high glucose (Gibco), 10% FBS (Sigma-Aldrich) at 37° C. with 5% CO2. For experiments, cells were counted and seeded into a range of culture plates, depending on the experiment, cell counting was done using the Cellometer Auto T4 with TrypanBlue (Gibco). […] Alternatively, HeLa cells were seeded in well plates and then transfected with […] of parkin cDNA using the PEI method once the plated cells reached 60% confluency. After 6 hours, the media was changed. Sub-culturing was done when the cells reached ˜90% confluency.
(§5) Cell culture with 70-80% confluency was lysed as follows: cells were washed with Phosphate Buffer Saline (PBS) (Sigma). 150 μl of lysis buffer was used on each well containing either: • 50 mM Tris-HCl pH 7.5, 1 mM EDTA, 1 mM EGTA, 0.27 M sucrose, 1 mM Na3VO4, 50 mM NaF, 5 mM Na pyrophosphate and fresh 1 mM benzamidine, 1% NP-40 and […]; or • 50 mM Tris-HCl pH 7.5, 1 mM EDTA, 1 mM EGTA, 10 mM Na β-glycerophosphate, 0.27 M sucrose, 1 mM Na3VO4, 50 mM NaF, 10 mM Na pyrophosphate with fresh 1 mM benzamidine, 1% Triton X-100, complete EDTA-free Protease Inhibitor, Phosphatase inhibitor cocktail 3 and 100 μM of 2-chloroacetamide.
(§6) The cells were scrapped and transferred to the microtube and eventually spun down at 12,000 rpm for 15 minutes at 4° C. Finally, the supernatant was transferred to the new microtubes and stored at −20° C. Protein concentration was measured using Bradford Assay. Serial concentrations 0.125; 0.25; 0.5 and 1 mg/ml of Bovine Serum Albumin (BSA) (Sigma Aldrich) were used as a standard. Samples were boiled at 90° C. for 5 minutes in SDS sample loading buffer.

OPA1 = OPA1 cleavage immunoblot (mitochondrial membrane depolarization) in parkin-transfected HeLa cells; assay type: cell-based; conditions: 50 μM 24 h, then 10 μM CCCP 3 h
Experimental: as §4, §5, §6
To explore this, we first treated parkin-transfected HeLa cells for 24 h with 50 μM kinetin, kinetin riboside or kinetin riboside ProTide, a monophosphate prodrug of kinetin riboside.

PINK1 [5] = biological target: T1, PINK1; conditions: evidenced by parkin Ser65 phosphorylation; cited from earlier work
[6] = system: HeLa cells transfected with YFP-parkin; assay: TMRM fluorescence (mitochondrial membrane potential); assay type: cell-based; conditions: pre-treatment 50 μM 24 h; data not shown
Experimental: For assessing tetramethylrhodamine methyl ester perchlorate (TMRM) fluorescence, cell media was removed and replaced with cell media consisting of 5 nM TMRM (ThermoFisher) and 10 μg/ml Hoechst 33258 stain for 30 mins in the dark at 37° C. to allow incorporation of TMRM into mitochondria. Following PBS washes, FluoroBrite DMEM (Gibco) media was added to cells, followed by subsequent imaging using a Zeiss LSM800 microscope at 37° C. with 5% CO2.

Compound	ubiquitin Ser65 phosphorylation after pre-treatment followed by valinomycin, compared to valinomycin alone ([1]; 50 μM 24 h, 50 nM valinomycin for 5 h)	ubiquitin Ser65 phosphorylation, compound alone ([1]; 50 μM, 24 h)	level and PINK1 dependence of mitophagy (WT versus KO MEFs) [2]	mitophagy in PINK1 WT MEFs [2]	parkin localisation to the mitochondria after pre-treatment followed by CCCP, compared to CCCP alone [3]	impact on mitochondrial fragmentation (TOM20), compound alone [3]	impact on parkin localisation, compound alone [3]	reduction in ubiquitin phosphorylation and parkin localisation compared with kinetin riboside (Ub Ser65 phosphorylation; 50 μM 24 h, then 10 μM CCCP)	ubiquitin Ser65 phosphorylation after pre-treatment followed by CCCP, compared to CCCP alone (Ub Ser65 phosphorylation; 50 μM 24 h, then 10 μM CCCP)	impact on ubiquitin phosphorylation, compound alone (Ub Ser65 phosphorylation)	activation of PINK1 as judged by parkin Ser65 phosphorylation (PINK1 [4])	inhibition of ubiquitin phosphorylation by pre-treatment (Ub Ser65 phosphorylation; YFP-parkin HeLa cells, 50 μM 24 h prior to 10 μM niclosamide or CCCP 1 h)	prevention of OPA1 cleavage by pre-treatment (OPA1)	CCCP-independent activation of PINK1 in cells, compared to kinetin (PINK1 [5])	prevention of membrane potential collapse caused by niclosamide and CCCP [6]
OC[C@H]1O[C@@H](n2cnc3c(NCc4ccccc4)ncnc32)[C@H](O)[C@@H]1O [9c, (2R,3R,4S,5R)-2-(6-(benzylamino)-9H-purin-9-yl)-5-(hydroxymethyl)tetrahydrofuran-3,4-diol]	significant suppression of ubiquitin Ser65 phosphorylation	increased phosphorylation	low level of mitophagy in a PINK1-dependent manner	induced mitophagy	significant reduction	did not have any impact	did not have any impact	appears stronger than that induced by kinetin riboside	significant reduction	did not have any impact	low level activation of PINK1	–	–	–	–
OC[C@H]1O[C@@H](n2cnc3c(NCc4ccco4)ncnc32)[C@H](O)[C@@H]1O [kinetin riboside, N^6-(2-furanylmethyl) adenosine]	–	–	low level of mitophagy in a PINK1-dependent manner	induced mitophagy	inhibition	did not have any impact	did not have any impact	–	inhibited	did not have any impact	low level activation of PINK1	inhibited ubiquitin phosphorylation	did not prevent this effect	more potent CCCP-independent activation of PINK1	did not prevent the membrane potential collapse
